Columns and labels:
[1] = molecular target: T1, Purified recombinant ADAMTS-7 (rat prodomain/human catalytic domain, SEQ ID No. 01 or 02) (Homo sapiens, UniProt Q9UKP4); assay: Assay for ADAMTS-7 enzymatic activity (FRET substrate cleavage); type: biochemical; details: FRET substrate SEQ ID No. 11, 120 min at 32° C.; read-out: ADAMTS7-IC50
T1 construct: rat ADAMTS-7 signal peptide + prodomain (rat 1-217, Q1EHB3) (N); 2xStrep tag (C); 6xHis tag (C); made in house; host or cells: Expi293 cells
T1 sequence (Q9UKP4 237-537): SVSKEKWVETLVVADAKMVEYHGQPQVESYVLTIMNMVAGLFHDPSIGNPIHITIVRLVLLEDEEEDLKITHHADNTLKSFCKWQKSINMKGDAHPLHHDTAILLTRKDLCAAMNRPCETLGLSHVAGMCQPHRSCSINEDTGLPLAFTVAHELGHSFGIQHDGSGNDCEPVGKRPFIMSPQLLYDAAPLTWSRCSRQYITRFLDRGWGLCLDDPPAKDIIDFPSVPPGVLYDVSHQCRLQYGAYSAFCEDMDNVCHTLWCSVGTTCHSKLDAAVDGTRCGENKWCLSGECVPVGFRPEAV
Outline: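 About 20 nM enzyme in 20 mM HEPES pH 8.0, 150 mM NaCl, 5 mM CaCl2, 0.004% Brij and 10 μM ZnCl2 was mixed with compound in DMSO and a QXL520-quenched FRET peptide from thrombospondin-1 (275-289). After 120 min at 32 °C, fluorescence was read at 485/520 nm. IC50 came from percent inhibition versus concentration.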

ADAMTS4 = molecular target: T2, ADAMTS4 (Homo sapiens, UniProt O75173); assay: Selectivity assay for ADAMTS-7 modulators (FRET), ADAMTS4; type: biochemical; details: 50 nM enzyme (R&D 4307-AD), 1 μM Dabcyl/Edans FRET substrate, 120 min at 32° C.
T2 construct: purchased R&D 4307-AD
T2 sequence (O75173 213-685 limits assumed): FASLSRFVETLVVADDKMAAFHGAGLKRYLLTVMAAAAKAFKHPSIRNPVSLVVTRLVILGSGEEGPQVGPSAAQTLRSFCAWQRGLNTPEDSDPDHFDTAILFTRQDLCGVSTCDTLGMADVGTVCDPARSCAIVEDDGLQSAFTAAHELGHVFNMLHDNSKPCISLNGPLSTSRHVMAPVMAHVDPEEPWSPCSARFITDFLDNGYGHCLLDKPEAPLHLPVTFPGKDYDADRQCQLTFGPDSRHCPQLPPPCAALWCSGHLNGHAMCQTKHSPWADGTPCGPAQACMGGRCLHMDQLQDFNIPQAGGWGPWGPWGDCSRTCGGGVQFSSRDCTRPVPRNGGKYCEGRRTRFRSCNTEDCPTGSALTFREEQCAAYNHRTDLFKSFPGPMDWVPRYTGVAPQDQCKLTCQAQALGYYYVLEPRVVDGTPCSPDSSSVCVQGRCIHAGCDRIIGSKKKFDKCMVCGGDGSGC
Outline: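 Enzyme in 50 mM Tris pH 7.5, 150 mM NaCl, 10 mM CaCl2, 0.05% Brij, preincubated with compound in DMSO; reaction started with FRET substrate. Fluorescence increase read after 120 min at 32° C; IC50 from percent inhibition versus compound concentration.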

Row | SMILES | IC50 [1] [µM] | IC50 (ADAMTS4) [µM]
1 | CCC(C)C1(CNC(=O)c2cnn(-c3ccc(F)cc3)n2)NC(=O)NC1=O (single isomer, unassigned) [Example 137, ent-N-[(4-sec-butyl-2,5-dioxoimidazolidin-4-yl)methyl]-2-(4-fluorophenyl)-2H-1,2,3-triazole-4-carboxamide] | 0.037 | 1
2 | O=C1NC(=O)C(CNC(=O)c2cnn(-c3ccccc3)n2)(C2CCCOC2)N1 (single isomer, unassigned; dia1) [Example 84, dia1-N-{[4-(-oxan-3-yl)-2,5-dioxoimidazolidin-4-yl]methyl}-2-phenyl-2H-1,2,3-triazole-4-carboxamide] | 0.15 | 4
3 | O=C1NC(=O)C(CNC(=O)c2cnn(-c3ccccc3)n2)(C2CCCOC2)N1 (single isomer, unassigned; dia2) [Example 85, dia2-N-{[4-(-oxan-3-yl)-2,5-dioxoimidazolidin-4-yl]methyl}-2-phenyl-2H-1,2,3-triazole-4-carboxamide] | 0.25 | 6.5
4 | O=C1NC(=O)C(CNC(=O)c2cnn(-c3ccc(F)cc3)n2)(C2CCOCC2)N1 (single isomer, unassigned; ent-2) [Example 81] | 0.037 | 1.5
5 | CC(C)C1(CNC(=O)c2cnn(-c3ccc(F)cc3F)n2)NC(=O)NC1=O (single isomer, unassigned; ent-2) [Example 88, ent-2-(2,4-difluorophenyl)-N-[(4-isopropyl-2,5-dioxoimidazolidin-4-yl)methyl]-2H-1,2,3-triazole-4-carboxamide] | 0.098 | 13
6 | O=C1NC(=O)C(CNC(=O)c2cnn(-c3ccc(F)c(Cl)c3)n2)(C2CCC2)N1 (single isomer, unassigned; ent-2) [Example 91, ent-2-(3-chloro-4-fluorophenyl)-N-[(4-cyclobutyl-2,5-dioxoimidazolidin-4-yl)methyl]-2H-1,2,3-triazole-4-carboxamide] | 0.018 | 1.8
7 | N#Cc1cccc(-n2ncc(C(=O)NCC3(C4CCC4)NC(=O)NC3=O)n2)c1 (single isomer, unassigned; ent-2) [Example 92, ent-2-(3-cyanophenyl)-N-[(4-cyclobutyl-2,5-dioxoimidazolidin-4-yl)methyl]-2H-1,2,3-triazole-4-carboxamide] | 0.078 | 4
8 | O=C1NC(=O)C(CNC(=O)c2cnn(-c3ccc(Cl)cc3)n2)(C2CCC2)N1 (single isomer, unassigned; ent-2) [Example 95, ent-2-(4-chlorophenyl)-N-[(4-cyclobutyl-2,5-dioxoimidazolidin-4-yl)methyl]-2H-1,2,3-triazole-4-carboxamide] | 0.01 | 0.98
9 | O=C1NC(=O)C(CNC(=O)c2cnn(-c3cccc(Cl)c3)n2)(C2CCC2)N1 (single isomer, unassigned; ent-2) [Example 96, ent-2-(3-chlorophenyl)-N-[(4-cyclobutyl-2,5-dioxoimidazolidin-4-yl)methyl]-2H-1,2,3-triazole-4-carboxamide] | 0.048 | 2.2
10 | Cc1scnc1C1(CNC(=O)c2cnn(-c3ccc(F)cc3)n2)NC(=O)NC1=O (single isomer, unassigned; ent-2) [Example 103] | 0.002 | 0.2
11 | O=C1NC(=O)C(CNC(=O)c2cnn(-c3ccc(F)c(F)c3)n2)(c2nccs2)N1 (single isomer, unassigned; ent-2) [Example 107, ent-2-(3,4-difluorophenyl)-N-{[2,5-dioxo-4-(1,3-thiazol-2-yl)imidazolidin-4-yl]methyl}-2H-1,2,3-triazole-4-carboxamide] | 0.007 | 0.31
12 | O=C1NC(=O)C(CNC(=O)c2cnn(-c3ccc(Cl)c(F)c3)n2)(c2nccs2)N1 (single isomer, unassigned; ent-2) [Example 110, ent-2-(4-chloro-3-fluorophenyl)-N-{[2,5-dioxo-4-(1,3-thiazol-2-yl)imidazolidin-4-yl]methyl}-2H-1,2,3-triazole-4-carboxamide] | 0.005 | 0.4
13 | O=C1NC(=O)C(CNC(=O)c2cnn(-c3ccc(F)c(Cl)c3)n2)(c2nccs2)N1 (single isomer, unassigned; ent-2) [Example 112, ent-2-(3-chloro-4-fluorophenyl)-N-{[2,5-dioxo-4-(1,3-thiazol-2-yl)imidazolidin-4-yl]methyl}-2H-1,2,3-triazole-4-carboxamide] | 0.014 | 0.78
14 | O=C1NC(=O)C(CNC(=O)c2cnn(-c3ccc(F)cc3F)n2)(c2nccs2)N1 (single isomer, unassigned; ent-2) [Example 116, ent-2-(2,4-difluorophenyl)-N-{[2,5-dioxo-4-(1,3-thiazol-2-yl)imidazolidin-4-yl]methyl}-2H-1,2,3-triazole-4-carboxamide] | 0.078 | 5.5
15 | CC(C)C1(CNC(=O)c2cnn(-c3cccc(F)c3)n2)NC(=O)NC1=O (single isomer, unassigned; ent-2) [Example 119, ent-2-(3-fluorophenyl)-N-[(4-isopropyl-2,5-dioxoimidazolidin-4-yl)methyl]-2H-1,2,3-triazole-4-carboxamide] | 0.013 | 2.3
16 | CC(C)C1(CNC(=O)c2cnn(-c3cccc(C#N)c3)n2)NC(=O)NC1=O (single isomer, unassigned; ent-2) [Example 121, ent-2-(3-cyanophenyl)-N-[(4-isopropyl-2,5-dioxoimidazolidin-4-yl)methyl]-2H-1,2,3-triazole-4-carboxamide] | 0.078 | 2.6
17 | CC(C)C1(CNC(=O)c2cnn(-c3ccc(F)c(F)c3)n2)NC(=O)NC1=O (single isomer, unassigned; ent-2) [Example 123, ent-2-(3,4-difluorophenyl)-N-[(4-isopropyl-2,5-dioxoimidazolidin-4-yl)methyl]-2H-1,2,3-triazole-4-carboxamide] | 0.007 | 0.91
18 | CC(C)C1(CNC(=O)c2cnn(-c3ccc(Cl)c(F)c3)n2)NC(=O)NC1=O (single isomer, unassigned; ent-2) [Example 125, ent-2-(4-chloro-3-fluorophenyl)-N-[(4-isopropyl-2,5-dioxoimidazolidin-4-yl)methyl]-2H-1,2,3-triazole-4-carboxamide] | 0.007 | 1
19 | CC(C)C1(CNC(=O)c2cnn(-c3ccc(F)c(Cl)c3)n2)NC(=O)NC1=O (single isomer, unassigned; ent-2) [Example 126, ent-2-(3-chloro-4-fluorophenyl)-N-[(4-isopropyl-2,5-dioxoimidazolidin-4-yl)methyl]-2H-1,2,3-triazole-4-carboxamide] | 0.19 | 12
20 | Cn1ccnc1C1(CNC(=O)c2cnn(-c3ccc(F)cc3)n2)NC(=O)NC1=O (single isomer, unassigned; ent-2) [Example 144, ent-2-(4-fluorophenyl)-N-{[4-(1-methyl-1H-imidazol-2-yl)-2,5-dioxoimidazolidin-4-yl]methyl}-2H-1,2,3-triazole-4-carboxamide] | 0.002 | 0.13
21 | Cn1ccnc1C1(CNC(=O)c2cnn(-c3ccc(Cl)c(F)c3)n2)NC(=O)NC1=O (single isomer, unassigned; ent-2) [Example 145, ent-2-(4-chloro-3-fluorophenyl)-N-{[4-(1-methyl-1H-imidazol-2-yl)-2,5-dioxoimidazolidin-4-yl]methyl}-2H-1,2,3-triazole-4-carboxamide] | 0.002 | 0.041
22 | Cn1ccnc1C1(CNC(=O)c2cnn(-c3ccc(F)c(F)c3)n2)NC(=O)NC1=O (single isomer, unassigned; ent-2) [Example 147, ent-2-(3,4-difluorophenyl)-N-{[4-(1-methyl-1H-imidazol-2-yl)-2,5-dioxoimidazolidin-4-yl]methyl}2H-1,2,3-triazole-4-carboxamide] | 0.003 | 0.046
23 | CC1(CNC(=O)c2cnn(-c3ccc(F)cc3)n2)NC(=O)NC1=O (single isomer, unassigned; ent-2) [Example 153, ent-2-(4-fluorophenyl)-N-[(4-methyl-2,5-dioxoimidazolidin-4-yl)methyl]-2H-1,2,3-triazole-4-carboxamide] | 0.083 | 8.9
